In patent publication US20120282331A1, “MAMMALIAN METABOLITES OF STEROIDS” (TOKAI PHARMACEUTICALS, INC., priority 2009, published 2012):

How the values were obtained:
[1] = Metabolic stability in pooled rat liver microsomes; format: in vitro ADME
Description: (§1) The depletion of the parent compound and the formation of metabolites in a time-dependent manner were explored in the presence or absence of an NADPH-generating system.
(§2) 3β-Hydroxy-17(1H-benzimidazol-1-yl)androsta-5,16-diene is incubated with pooled rat, dog, monkey and human liver microsomes at a protein concentration of 0.6 mg/mL. Incubation mixture contains either 0.1 M potassium phosphate buffer pH 7.4 or the incubation buffer. Following two minutes of pre-incubation of the incubation mixture at ˜37° C., the reaction is started by the addition of an NADPH-generating system (NADPH-GS) (1 mM NADP+, 5 mM glucose-6-phosphate, 1.0 unit/mL glucose-6-phosphate dehydrogenase) or 0.1 M phosphate buffer. At the appropriate time points (0, 15, 30, 60 and 120 minutes), reactions are stopped by the addition of appropriate stop solutions (0.1% formic acid in acetonitrile). The samples are centrifuged at approximately 10 000×g for 10 minutes at 20° C. An amount of supernatant from each sample is transferred to pre-labeled HPLC vials for analysis. Samples are analyzed by LC/MS to monitor the remaining parent compound or formation of potential metabolites. On each occasion, blank sample containing TOK-001 but without microsomes, is included.

[2] = Solubility in incubation medium; format: physicochemical; settings: presence versus absence of MgCl2/EDTA
Source text: However, the role of the divalent cation, MgCl2 in the activation of the CYP 450 activity is not well defined (Saito et al., 2006, Tamura et al., 1988).

[3] = Metabolic stability in pooled dog liver microsomes; format: in vitro ADME
Description: as §1, §2

[4] = Metabolic stability in pooled human liver microsomes; format: in vitro ADME
Description: as §1, §2

[5] = Metabolic stability in pooled monkey liver microsomes; format: in vitro ADME; settings: EDTA and MgCl2; for depletion (negative = increase in concentration): absence of NADPH-GS
Description: as §1, §2

[6] = 10 μM, EDTA and MgCl2, up to 60 minutes
[7] = 10 μM, EDTA and MgCl2, without NADPH-GS, 120 minutes
[8] = EDTA and MgCl2, up to 120 minutes

Compound: C[C@]12CC[C@H](O)CC1=CC[C@@H]1[C@@H]2CC[C@]2(C)C(n3cnc4ccccc43)=CC[C@@H]12 [Compound (1), 3β-Hydroxy-17(1H-benzimidazol-1-yl)androsta-5,16-diene]
- metabolic stability [1, 6]: metabolically stable
- depletion of parent compound ([1]; 10 μM, EDTA and MgCl2, with NADPH-GS, 120 minutes): ~21%
- change of parent compound in negative control [1, 7]: slight increase
- metabolic stability [1, 8]: metabolically stable
- recovery at 120 min, 10 μM ([1]; both sexes, rat, pooled rat liver microsomes, pH 7.4, 10 μM, 0.1 M phosphate buffer only, with NADPH-generating system, 120 minutes, read-out: recovery compared to the 0 minute incubation): ~86%
- recovery at 60 min, 10 μM ([1]; both sexes, rat, pooled rat liver microsomes, 10 μM, phosphate buffer, 1 mM EDTA, 3 mM MgCl2, with NADPH-generating system, 60 minutes, read-out: recovery compared to the 0 minute incubation): ~85%
- recovery at 120 min, 10 μM ([1]; both sexes, rat, pooled rat liver microsomes, 10 μM, phosphate buffer, 1 mM EDTA, 3 mM MgCl2, with NADPH-generating system, 120 minutes, read-out: recovery compared to the 0 minute): ~79%
- dissolution in incubation medium [2]: slightly better in the absence of MgCl2/EDTA
- depletion compared to the 0 minute incubation ([3]; 10 μM, 0.1 M phosphate buffer only, with NADPH-generating system, 120 minutes): ~25%
- metabolic stability ([3]; 10 μM, 0.1 M phosphate buffer only, with NADPH-generating system, up to 60 minutes): metabolically stable
- metabolic stability [3, 6]: metabolically stable
- decrease of parent compound in negative control [3, 7]: ~21%
- metabolic stability [3, 8]: metabolically stable
- recovery at 60 min, 10 μM ([3]; both sexes, dog, pooled dog liver microsomes, 10 μM, phosphate buffer, 1 mM EDTA, 3 mM MgCl2, with NADPH-generating system, 60 minutes, read-out: recovery compared to the 0 minute): ~85%
- depletion of parent compound ([4]; 10 μM, EDTA and MgCl2, absence of NADPH-GS): ~7%
- depletion of parent compound ([4]; 10 μM, EDTA and MgCl2, with NADPH-generating system, over 120 minutes): ≤ 11%
- metabolized (depletion) ([4]; 0.1 M phosphate buffer only, NADPH and time-dependent): ≥ 50%
- metabolic stability [4, 8]: metabolically stable
- recovery at 120 min, 10 μM ([4]; both sexes, human, pooled human liver microsomes, 10 μM, phosphate buffer, 1 mM EDTA, 3 mM MgCl2, with NADPH-generating system, over 120 minutes): ~89%
- depletion (negative = increase in concentration) ([5]; 10 μM, 30 minutes): ~−14%
- depletion (negative = increase in concentration) ([5]; 10 μM, 120 minutes): ~−12%
- depletion of parent compound ([5]; 10 μM, with NADPH-GS, 30 minutes): ~16%
- metabolic stability ([5]; up to 120 minutes): less stable
